Experimental data as given in ChEMBL document CHEMBL1201862, “PubChem BioAssay data set” (2004).
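Step 1: Grow cells in 96-well plates. Step 2: Expose to compound for 48 hours at 5 concentrations. Step 3: Interpolate endpoints linearly; if unreached, use highest concentration. At the GI50, growth is halved.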 Activity calls are given as the source filed them. No stated cut-off is given here; in the data, active = GI50 up to about 1.1 µM and inactive = higher.

Tests used:
Assay in all cases: NCI anticancer screen, dose series, 48 h
UACC-62 = test system: UACC-62
NCI-H23 = test system: NCI-H23
LOX IMVI = test system: LOX IMVI
HL-60 = test system: HL-60
A498 = test system: A498
NCI-H460 = test system: NCI-H460
M14 = test system: M14
COLO 205 = test system: COLO 205
MCF7 = test system: MCF7
NCI-H226 = test system: NCI-H226
TK-10 = test system: TK-10
SNB-75 = test system: SNB-75
HCT-116 = test system: HCT-116
HCT-15 = test system: HCT-15
SN12C = test system: SN12C
OVCAR-3 = test system: OVCAR-3
CAKI-1 = test system: CAKI-1
Hs-578T = test system: Hs-578T
MDA-N = test system: MDA-N
SF-539 = test system: SF-539

CSc1ccc(NC(=O)C2CCCCC2C(=O)O)cc1 (stereo not given)
GI50 (UACC-62): > 100 µM (inactive) | GI50 (NCI-H23): > 100 µM (inactive) | GI50 (LOX IMVI): > 100 µM (inactive) | GI50 (HL-60): > 100 µM (inactive) | GI50 (A498): > 100 µM (inactive) | GI50 (NCI-H460): > 100 µM (inactive) | GI50 (M14): > 100 µM (inactive) | GI50 (COLO 205): > 100 µM (inactive) | GI50 (MCF7): > 100 µM (inactive) | GI50 (NCI-H226): > 100 µM (inactive) | GI50 (TK-10): > 100 µM (inactive) | GI50 (SNB-75): > 100 µM (inactive) | GI50 (HCT-116): > 100 µM (inactive) | GI50 (HCT-15): > 100 µM | GI50 (SN12C): > 100 µM (inactive) | GI50 (OVCAR-3): > 100 µM (inactive) | GI50 (CAKI-1): > 100 µM (inactive) | GI50 (Hs-578T): > 100 µM (inactive) | GI50 (MDA-N): > 100 µM (inactive) | GI50 (SF-539): > 100 µM (inactive)

Cc1nc(O)nc(NNCc2ccc(Cl)cc2)c1C(=O)Nc1ccc(Cl)cc1
GI50 (UACC-62): 3.69 µM (inactive) | GI50 (NCI-H23): > 100 µM (inactive) | GI50 (LOX IMVI): > 100 µM (inactive) | GI50 (HL-60): > 100 µM (inactive) | GI50 (A498): > 100 µM (inactive) | GI50 (NCI-H460): > 100 µM (inactive) | GI50 (M14): > 100 µM (inactive) | GI50 (COLO 205): > 100 µM (inactive) | GI50 (MCF7): > 100 µM (inactive) | GI50 (NCI-H226): > 100 µM (inactive) | GI50 (TK-10): > 100 µM (inactive) | GI50 (SNB-75): > 100 µM (inactive) | GI50 (HCT-116): > 100 µM (inactive) | GI50 (HCT-15): 50.1 µM | GI50 (SN12C): > 100 µM (inactive) | GI50 (OVCAR-3): > 100 µM (inactive) | GI50 (CAKI-1): > 100 µM (inactive) | GI50 (Hs-578T): > 100 µM (inactive) | GI50 (MDA-N): 81.1 µM (inactive) | GI50 (SF-539): > 100 µM (inactive)

COC(=O)C1=C(O)C(C(=O)OC)[C@]2(O)[C@H](C(=O)OC)[C@H]1C[C@@H](c1ccc(Cl)cc1)[C@H]2C(=O)OC (stereo not given in full)
GI50 (UACC-62): 7.69 µM (inactive) | GI50 (NCI-H23): 7.18 µM (inactive) | GI50 (LOX IMVI): 10.7 µM (inactive) | GI50 (HL-60): 1.75 µM (inactive) | GI50 (A498): 11.7 µM (inactive) | GI50 (NCI-H460): 5.45 µM (inactive) | GI50 (M14): 4.72 µM (inactive) | GI50 (COLO 205): 10 µM (inactive) | GI50 (MCF7): 4.07 µM (inactive) | GI50 (NCI-H226): 8.18 µM (inactive) | GI50 (TK-10): 13 µM (inactive) | GI50 (SNB-75): 13.6 µM (inactive) | GI50 (HCT-116): 5.28 µM (inactive) | GI50 (HCT-15): 4.59 µM | GI50 (SN12C): 5.16 µM (inactive) | GI50 (OVCAR-3): 2.94 µM (inactive) | GI50 (CAKI-1): 7.73 µM (inactive) | GI50 (Hs-578T): 3.89 µM (inactive) | GI50 (MDA-N): 3.78 µM (inactive) | GI50 (SF-539): 4.22 µM (inactive)

Cc1nc(O)nc(N(CCO)/N=C/c2ccc(Cl)cc2)c1C(=O)Nc1ccc(Cl)cc1
GI50 (UACC-62): > 100 µM (inactive) | GI50 (NCI-H23): > 100 µM (inactive) | GI50 (LOX IMVI): > 100 µM (inactive) | GI50 (HL-60): > 100 µM (inactive) | GI50 (A498): > 100 µM (inactive) | GI50 (NCI-H460): > 100 µM (inactive) | GI50 (M14): 87.3 µM (inactive) | GI50 (COLO 205): > 100 µM (inactive) | GI50 (MCF7): > 100 µM (inactive) | GI50 (NCI-H226): 72.6 µM (inactive) | GI50 (TK-10): 85.3 µM (inactive) | GI50 (SNB-75): 55.2 µM (inactive) | GI50 (HCT-116): 57.8 µM (inactive) | GI50 (HCT-15): > 100 µM | GI50 (SN12C): > 100 µM (inactive) | GI50 (OVCAR-3): > 100 µM (inactive) | GI50 (CAKI-1): > 100 µM (inactive) | GI50 (Hs-578T): 32.5 µM (inactive) | GI50 (MDA-N): > 100 µM (inactive) | GI50 (SF-539): > 100 µM (inactive)

O=c1[nH]/c(=C/c2ccc(OCc3ccccc3)cn2)c(=O)[nH]/c1=C/c1ccc([N+](=O)[O-])cc1
GI50 (UACC-62): > 100 µM (inactive) | GI50 (NCI-H23): > 100 µM (inactive) | GI50 (LOX IMVI): > 100 µM (inactive) | GI50 (HL-60): > 100 µM (inactive) | GI50 (A498): 43 µM (inactive) | GI50 (NCI-H460): > 100 µM (inactive) | GI50 (M14): > 100 µM (inactive) | GI50 (COLO 205): > 100 µM (inactive) | GI50 (MCF7): > 100 µM (inactive) | GI50 (NCI-H226): > 100 µM (inactive) | GI50 (TK-10): > 100 µM (inactive) | GI50 (SNB-75): 27.1 µM (inactive) | GI50 (HCT-116): > 100 µM (inactive) | GI50 (HCT-15): > 100 µM | GI50 (SN12C): > 100 µM (inactive) | GI50 (OVCAR-3): > 100 µM (inactive) | GI50 (CAKI-1): > 37.8 µM (inactive) | GI50 (Hs-578T): 35.8 µM (inactive) | GI50 (MDA-N): > 100 µM (inactive) | GI50 (SF-539): > 61.4 µM (inactive)

COc1cc2c(cc1O)[C@@H]1Cc3c(cc(OC)c(OC)c3Oc3cc4c(cc3OC)CCN(C)[C@@H]4Cc3ccc(O)cc3)[C@H](C2)N1C
GI50 (UACC-62): > 55.8 µM (inactive) | GI50 (NCI-H23): > 100 µM (inactive) | GI50 (LOX IMVI): 18.5 µM (inactive) | GI50 (HL-60): 17.7 µM (inactive) | GI50 (A498): 37 µM (inactive) | GI50 (NCI-H460): 53.7 µM (inactive) | GI50 (M14): 18.2 µM (inactive) | GI50 (COLO 205): 19.4 µM (inactive) | GI50 (MCF7): 55.5 µM (inactive) | GI50 (NCI-H226): > 100 µM (inactive) | GI50 (TK-10): > 72.3 µM (inactive) | GI50 (SNB-75): 20.6 µM (inactive) | GI50 (HCT-116): 48.1 µM (inactive) | GI50 (HCT-15): > 78.9 µM | GI50 (SN12C): > 71.1 µM (inactive) | GI50 (OVCAR-3): > 100 µM (inactive) | GI50 (CAKI-1): > 60.3 µM (inactive) | GI50 (Hs-578T): 46 µM (inactive) | GI50 (MDA-N): 19 µM (inactive) | GI50 (SF-539): 23.5 µM (inactive)

COC(=O)c1ccccc1C1CN=NC12Cc1cc(C)ccc1C2=O (stereo not given)
GI50 (UACC-62): > 100 µM (inactive) | GI50 (NCI-H23): > 100 µM (inactive) | GI50 (LOX IMVI): 36.4 µM (inactive) | GI50 (HL-60): 92.7 µM (inactive) | GI50 (A498): > 100 µM (inactive) | GI50 (NCI-H460): > 100 µM (inactive) | GI50 (M14): > 100 µM (inactive) | GI50 (COLO 205): > 100 µM (inactive) | GI50 (MCF7): 3.58 µM (inactive) | GI50 (NCI-H226): > 100 µM (inactive) | GI50 (TK-10): 16.6 µM (inactive) | GI50 (SNB-75): 71 µM (inactive) | GI50 (HCT-116): > 100 µM (inactive) | GI50 (HCT-15): > 100 µM | GI50 (SN12C): > 100 µM (inactive) | GI50 (OVCAR-3): 57 µM (inactive) | GI50 (CAKI-1): 84.1 µM (inactive) | GI50 (Hs-578T): 49 µM (inactive) | GI50 (MDA-N): 72.9 µM (inactive) | GI50 (SF-539): > 100 µM (inactive)

Cn1c(-c2ccccc2)cc(-c2ccc3c(c2)OCO3)c1-c1ccsc1
GI50 (UACC-62): > 100 µM (inactive) | GI50 (NCI-H23): 52.8 µM (inactive) | GI50 (LOX IMVI): > 100 µM (inactive) | GI50 (HL-60): > 100 µM (inactive) | GI50 (A498): > 100 µM (inactive) | GI50 (NCI-H460): > 100 µM (inactive) | GI50 (M14): > 100 µM (inactive) | GI50 (COLO 205): > 100 µM (inactive) | GI50 (MCF7): > 100 µM (inactive) | GI50 (NCI-H226): > 100 µM (inactive) | GI50 (TK-10): > 100 µM (inactive) | GI50 (SNB-75): > 100 µM (inactive) | GI50 (HCT-116): > 100 µM (inactive) | GI50 (HCT-15): > 100 µM | GI50 (SN12C): > 100 µM (inactive) | GI50 (OVCAR-3): > 100 µM (inactive) | GI50 (CAKI-1): > 100 µM (inactive) | GI50 (Hs-578T): > 100 µM (inactive) | GI50 (MDA-N): > 100 µM (inactive) | GI50 (SF-539): > 100 µM (inactive)

COC(=O)[C@H]1COC(=O)N1
GI50 (UACC-62): > 100 µM (inactive) | GI50 (NCI-H23): > 100 µM (inactive) | GI50 (LOX IMVI): > 100 µM (inactive) | GI50 (HL-60): 89.7 µM (inactive) | GI50 (A498): > 100 µM (inactive) | GI50 (NCI-H460): > 100 µM (inactive) | GI50 (M14): > 100 µM (inactive) | GI50 (COLO 205): > 100 µM (inactive) | GI50 (MCF7): > 100 µM (inactive) | GI50 (NCI-H226): > 100 µM (inactive) | GI50 (TK-10): > 100 µM (inactive) | GI50 (SNB-75): > 100 µM (inactive) | GI50 (HCT-116): > 100 µM (inactive) | GI50 (HCT-15): > 100 µM | GI50 (SN12C): > 100 µM (inactive) | GI50 (OVCAR-3): > 100 µM (inactive) | GI50 (CAKI-1): > 100 µM (inactive) | GI50 (Hs-578T): > 100 µM (inactive) | GI50 (MDA-N): > 100 µM (inactive) | GI50 (SF-539): > 100 µM (inactive)

COc1ccc(/C=N/c2nc3cc4sc(/N=C/c5ccc(OC)cc5)nc4cc3s2)cc1
GI50 (UACC-62): 27.3 µM (inactive) | GI50 (NCI-H23): 15.9 µM (inactive) | GI50 (LOX IMVI): 28.3 µM (inactive) | GI50 (HL-60): 18.4 µM (inactive) | GI50 (A498): > 100 µM (inactive) | GI50 (NCI-H460): 5 µM (inactive) | GI50 (M14): 58.2 µM (inactive) | GI50 (COLO 205): 3.66 µM (inactive) | GI50 (MCF7): 11.6 µM (inactive) | GI50 (NCI-H226): 24.9 µM (inactive) | GI50 (TK-10): 30.9 µM (inactive) | GI50 (SNB-75): > 100 µM (inactive) | GI50 (HCT-116): 18.4 µM (inactive) | GI50 (HCT-15): 19.5 µM | GI50 (SN12C): 32.7 µM (inactive) | GI50 (OVCAR-3): 23.6 µM (inactive) | GI50 (CAKI-1): 27 µM (inactive) | GI50 (Hs-578T): > 32.7 µM (inactive) | GI50 (MDA-N): 34.2 µM (inactive) | GI50 (SF-539): > 100 µM (inactive)
